Laboratory results taken from patent US7964531B2, “3-phenoxy-4-pyridazinol derivatives and herbicidal composition containing the same” (Mitsui Chemicals Agro, Inc., priority 2001, dated 2011).

Row | Compound | melting point [°C]
1 | Oc1cc(Cl)nnc1Oc1c(F)cccc1F [Compound No. 710, 6-Chloro-3-(2,6-difluorophenoxy)-4-pyridazinol] | 209 to 213
2 | Cc1cc2c(c(Oc3nnc(Cl)cc3O)c1C)CCC2 [Compound No. 1129, 6-Chloro-3-[(5,6-dimethyl-2,3-dihydro-1H-inden-4-yl)oxy]-4-pyridazinol] | 210 to 213
3 | C=C(C)c1cccc(C)c1Oc1nnc(Cl)cc1O [Compound No. 2577, 6-Chloro-3-(2-isopropenyl-6-methylphenoxy)-4-pyridazinol] | 183 to 186
4 | Cc1ccc(C(C)C)cc1Oc1nnc(Cl)cc1O [Compound No. 623, 6-Chloro-3-(5-isopropyl-2-methylphenoxy)-4-pyridazinol] | 168 to 169
5 | Cc1cc(C)c(Oc2nnc(Cl)cc2O)c(C)c1 [Compound No. 1122, 6-Chloro-3-(2,4,6-trimethylphenoxy)-4-pyridazinol] | 235 to 239
6 | COc1cccc(Oc2nnc(Cl)cc2OS(=O)(=O)c2ccc(C)cc2)c1 [Compound No. 2238, 6-Chloro-3-(3-methoxyphenoxy)-4-pyridazinyl 4-methylbenzenesulfonate] | 89 to 90
7 | Cn1ccc2cccc(Oc3nnc(Cl)cc3O)c21 [Compound No. 2568, 6-Chloro-3-[(1-methyl-1H-indol-7-yl)oxy]-4-pyridazinol] | 219 to 221
8 | Cc1cc(C)c(F)c(Oc2nnc(Cl)cc2O)c1C [Compound No. 2597, 6-Chloro-3-(2-fluoro-3,5,6-trimethylphenoxy)-4-pyridazinol] | 258 to 260
9 | Oc1cc(Cl)nnc1Oc1c(C2CC2)ccc2ccoc12 [Compound No. 1102, 6-Chloro-3-[(6-cyclopropyl-1-benzofuran-7-yl)oxy]-4-pyridazinol] | 175 to 180
10 | Cc1cc(OC(=O)c2ccccc2)ccc1Oc1nnc(Cl)cc1OC(=O)c1ccccc1 [Compound No. 3850, 4-{[4-(Benzoyloxy)-6-chloro-3-pyridazinyl]oxy}-3-methylphenyl benzoate] | 118 to 120
11 | Oc1cc(Cl)nnc1Oc1c(F)cccc1C1CC1 [Compound No. 719, 6-Chloro-3-(2-cyclopropyl-6-fluorophenoxy)-4-pyridazinol] | 200 to 203
12 | C[Si](C)(C)c1c(Cl)nnc(Oc2ccccc2)c1O | 119 to 120
13 | Cc1ccc(S(=O)(=O)Oc2cc(Cl)nnc2Oc2ccccc2C2CCCCC2)cc1 [Compound No. 2230, 6-Chloro-3-(2-cyclohexylphenoxy)-4-pyridazinyl 4-methylbenzenesulfonate] | 120 to 121
14 | Oc1cc(Cl)nnc1Oc1cc(C(F)(F)F)cc(C(F)(F)F)c1 [Compound No. 1009, 3-[3,5-Bis(trifluoromethyl)phenoxy]-6-chloro-4-pyridazinol] | 237 to 242
15 | Cc1ccccc1Oc1nnc(Cl)cc1OC(=O)c1ccccc1C(=O)Oc1cc(Cl)nnc1Oc1ccccc1C [Compound No. 2827, Bis[6-chloro-3-(2-methylphenoxy)-4-pyridazinyl]phthalate] | 157 to 158
16 | CC1(c2ccccc2Oc2nnc(Cl)cc2O)CC1 [Compound No. 144, 6-Chloro-3-[2-(1-methylcyclopropyl)phenoxy]-4-pyridazinol] | 196 to 198
17 | Cc1cccc(C2CC2)c1Oc1nnc(Cl)cc1OC(=O)C(C)(C)CCl [Compound No. 2703, 6-Chloro-3-(2-cyclopropyl-6-methylphenoxy)-4-pyridazinyl 3-chloro-2,2-dimethylpropanoate] | 112 to 115
18 | Oc1cc(Cl)nnc1Oc1ccccc1-c1nc2ccccc2s1 [Compound No. 376, 3-[2-(1,3-Benzothiazol-2-yl)phenoxy]-6-chloro-4-pyridazinol] | 215 to 217
19 | CC1(C)Cc2c(Oc3nnc(Cl)cc3O)cccc21 [Compound No. 2556, 6-Chloro-3-[(7,7-dimethylbicyclo[4.2.0]octa-1,3,5-trien-2-yl)oxy]-4-pyridazinol] | 197 to 199
20 | O=[N+]([O-])c1ccccc1Oc1nnc(Cl)cc1O [Compound No. 383, 6-Chloro-3-(2-nitrophenoxy)-4-pyridazinol] | 99 to 100
21 | Cc1cccc(Oc2nnc(Cl)cc2O)c1Br [Compound No. 450, 3-(2-Bromo-3-methylphenoxy)-6-chloro-4-pyridazinol] | 140 to 141
22 | Cc1cccc(C2CC2(Cl)Cl)c1Oc1nnc(Cl)cc1O (centres unmarked) [Compound No. 827, 6-Chloro-3-[2-(2,2-dichlorocyclopropyl)-6-methylphenoxy]-4-pyridazinol] | 213 to 215
23 | Cc1ccccc1Oc1nnc(Cl)cc1OC(=O)N1CCCC1 [Compound No. 1924, 6-Chloro-3-(2-methylphenoxy)-4-pyridazinyl 1-pyrrolidinecarboxylate] | 126 to 127
24 | Cc1ccc2c(c1Oc1nnc(Cl)cc1O)CCC2 [Compound No. 1088, 6-Chloro-3-[(5-methyl-2,3-dihydro-1H-inden-4-yl)oxy]-4-pyridazinol] | 222 to 225
25 | CC(C)(C)c1cccc(Oc2nnc(Cl)cc2O)c1 [Compound No. 416, 3-(3-tert-Butylphenoxy)-6-chloro-4-pyridazinol] | 203 to 207

Row | Compound | melting point [°C]
26 | COCC1(c2ccccc2Oc2nnc(Cl)cc2O)CC1 [Compound No. 163, 6-Chloro-3-{2-[1-(methoxymethyl)cyclopropyl]phenoxy}-4-pyridazinol] | 187 to 190
27 | CCc1cc(I)ccc1Oc1nnc(Cl)cc1O [Compound No. 562, 6-Chloro-3-(2-ethyl-4-iodophenoxy)-4-pyridazinol] | 199 to 201
28 | COc1cccc(Oc2nnc(Cl)cc2O)c1 [Compound No. 425, 6-Chloro-3-(3-methoxyphenoxy)-4-pyridazinol] | 199 to 203
29 | Oc1cc(Cl)nnc1Oc1ccccc1-c1ccsc1 [Compound No. 361, 6-Chloro-3-[2-(3-thienyl)phenoxy]-4-pyridazinol] | 207 to 209
30 | Cc1nc2cccc(Oc3nnc(Cl)cc3O)c2o1 [Compound No. 549, 6-Chloro-3-[(2-methyl-1,3-benzoxazol-7-yl)oxy]-4-pyridazinol] | 197 to 202
31 | Cc1cc(Cl)ccc1Oc1nnc(Cl)cc1O [Compound No. 558, 6-Chloro-3-(4-chloro-2-methylphenoxy)-4-pyridazinol] | 235 to 235.5
32 | Cc1ccccc1Oc1nnc(Br)cc1O [Compound No. 2411, 6-Bromo-3-(2-methylphenoxy)-4-pyridazinol] | 197 to 198
33 | CON(C)C(=O)Oc1cc(Cl)nnc1Oc1c(C)cccc1C1CC1 | 63 to 64.5
34 | Cc1nc2c(Oc3nnc(Cl)cc3O)cccc2o1 [Compound No. 538, 6-Chloro-3-[(2-methyl-1,3-benzoxazol-4-yl)oxy]-4-pyridazinol] | 221 to 222
35 | Cc1ccc(S(=O)(=O)Oc2cc(Cl)nnc2Oc2ccccc2C(C)C)cc1 [Compound No. 2222, 6-Chloro-3-(2-isopropylphenoxy)-4-pyridazinyl 4-methylbenzenesulfonate] | 99 to 100
36 | Oc1cc(Cl)nnc1Oc1c(C2CC2)ccc2c1CCC2 [Compound No. 1091, 6-Chloro-3-[(5-cyclopropyl-2,3-dihydro-1H-inden-4-yl)oxy]-4-pyridazinol] | 218 to 220
37 | Cc1ccccc1Oc1nnc(Cl)cc1OS(=O)(=O)c1ccc([N+](=O)[O-])cc1 [Compound No. 2287, 6-Chloro-3-(2-methylphenoxy)-4-pyridazinyl 4-nitrobenzenesulfonate] | 166 to 169
38 | Cc1cccc(C)c1Oc1nnc(Cl)cc1O [Compound No. 801, 6-Chloro-3-(2,6-dimethylphenoxy)-4-pyridazinol] | 214 to 215
39 | Cc1ccc(S(=O)(=O)Oc2cc(Cl)nnc2Oc2ccc(Br)cc2C(C)C)cc1 [Compound No. 2248, 3-(4-Bromo-2-isopropylphenoxy)-6-chloro-4-pyridazinyl 4-methylbenzenesulfonate] | 119 to 122
40 | Nc1ccccc1OC1(Cl)NN=CC=C1O (centres unmarked) [Compound No. 377, 3-(2-Aminophenoxy)-3-chloro-4-pyridazinol] | 249 to 250
41 | Cc1ccc(S(=O)(=O)Oc2cc(Cl)nnc2Oc2c(C)cccc2C)cc1 [Compound No. 2263, 6-Chloro-3-(2,6-dimethylphenoxy)-4-pyridazinyl 4-methylbenzenesulfonate] | 89 to 90
42 | Cc1cc(Oc2nnc(Cl)cc2O)cc(C(C)C)c1 [Compound No. 1000, 6-Chloro-3-(3-isopropyl-5-methylphenoxy)-4-pyridazinol] | 204 to 206
43 | CC(C)c1cccc(F)c1Oc1nnc(Cl)cc1O [Compound No. 717, 6-Chloro-3-(2-fluoro-6-isopropylphenoxy)-4-pyridazinol] | 215 to 220
44 | Cc1ccc(C)c(Oc2nnc(Cl)cc2O)c1 [Compound No. 621, 6-Chloro-3-(2,5-dimethylphenoxy)-4-pyridazinol] | 80 to 83
45 | CC(=O)c1cc(O)c(Oc2ccccc2C)nn1 [Compound No. 2455, 1-[5-Hydroxy-6-(2-methylphenoxy)-3-pyridazinyl]ethanone] | 182 to 185
46 | Cc1c(F)ccc(C2CC2)c1Oc1nnc(Cl)cc1O [Compound No. 1052, 6-Chloro-3-(6-cyclopropyl-3-fluoro-2-methylphenoxy)-4-pyridazinol] | 230 to 231
47 | CCC1(c2ccccc2Oc2nnc(Cl)cc2O)CC1 [Compound No. 145, 6-Chloro-3-[2-(1-ethylcyclopropyl)phenoxy]-4-pyridazinol] | 162 to 165
48 | CC(C)(C)c1ccc(Oc2nnc(Cl)cc2O)cc1 [Compound No. 433, 3-(4-tert-Butylphenoxy)-6-chloro-4-pyridazinol] | 224 to 225
49 | Oc1cc(Cl)nnc1Oc1ccc(Cl)cc1Cl [Compound No. 552, 6-Chloro-3-(2,4-dichlorophenoxy)-4-pyridazinol] | 233 to 237
50 | COC(=O)c1ccc(OC)c(Oc2nnc(Cl)cc2O)c1 [Compound No. 2574, Methyl 3-[(6-chloro-4-hydroxy-3-pyridazinyl)oxy]-4-methoxybenzoate] | 115 to 123
